Results from PubChem BioAssay (NCI).
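Step 1: Grow cells in 96-well plates. Step 2: Expose to compound for 48 hours at 5 concentrations. Step 3: Interpolate endpoints linearly; if unreached, use highest concentration. GI50 = concentration required for 50% inhibition of growth. At the TGI there is no net growth.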

What was measured:
Test in all cases: NCI tumour cell line growth inhibition, 48 h
[1] = system: 786-0 renal
[2] = system: A498 renal
[3] = system: A549 NSCLC
[4] = system: ACHN renal
[5] = system: BT-549 breast
[6] = system: CAKI-1 renal
[7] = system: CCRF-CEM leukemia
[8] = system: COLO 205 colon
[9] = system: DLD-1 colon
[10] = system: DMS 114 small cell lung
[11] = system: DMS 273 small cell lung
[12] = system: DU-145 prostate
[13] = system: EKVX NSCLC
[14] = system: HCC-2998 colon
[15] = system: HCT-116 colon
[16] = system: HCT-15 colon
[17] = system: HL-60(TB) leukemia
[18] = system: HOP-18 NSCLC
[19] = system: HOP-62 NSCLC
[20] = system: HOP-92 NSCLC
[21] = system: HS 578T breast
[22] = system: HT29 colon
[23] = system: IGROV1 ovarian
[24] = system: KM12 colon
[25] = system: KM20L2 colon
[26] = system: LOX IMVI melanoma
[27] = system: LXFL 529 NSCLC
[28] = system: M14 melanoma
[29] = system: M19-MEL melanoma
[30] = system: MALME-3M melanoma
[31] = system: MCF7 breast
[32] = system: MDA-MB-231 breast
[33] = system: MDA-MB-435
[34] = system: MDA-N
[35] = system: MOLT-4 leukemia
[36] = system: NCI-H226 lung
[37] = system: NCI-H23 lung
[38] = system: NCI-H460 lung
[39] = system: NCI-H522 lung
[40] = system: NCI/ADR-RES ovarian
[41] = system: OVCAR-3 ovarian
[42] = system: OVCAR-4 ovarian
[43] = system: OVCAR-5 ovarian
[44] = system: OVCAR-8 ovarian
[45] = system: PC-3 prostate
[46] = system: RPMI-8226 leukemia
[47] = system: RXF 393 renal
[48] = system: RXF-631 renal
[49] = system: SF-268 CNS
[50] = system: SF-295 CNS
[51] = system: SF-539 CNS
[52] = system: SK-MEL-2 melanoma
[53] = system: SK-MEL-28 melanoma
[54] = system: SK-MEL-5 melanoma
[55] = system: SK-OV-3 ovarian
[56] = system: SN12C renal
[57] = system: SNB-19 CNS
[58] = system: SNB-75 CNS
[59] = system: SNB-78 CNS
[60] = system: SR leukemia
[61] = system: SW-620 colon
[62] = system: T-47D breast
[63] = system: TK-10 renal
[64] = system: U251 CNS
[65] = system: UACC-257 melanoma
[66] = system: UACC-62 melanoma
[67] = system: UO-31 renal
[68] = system: XF 498 CNS
[69] = system: K-562 leukemia
[70] = system: P388 leukemia
[71] = system: P388/ADR leukemia
[72] = system: SN12K1 renal

Molecule O=C(CC1(O)C(=O)Nc2c(Cl)ccc(Cl)c21)c1ccco1 (stereo not drawn) has a TGI [1] of 46.8 µM, a TGI [2] of 64 µM and a TGI [3] of 49.9 µM. The TGI [4] was 38.6 µM, the TGI [5] was over 100 µM and the TGI [6] was over 72.3 µM. The TGI [7] was 26.9 µM, the TGI [8] was 33 µM and the TGI [9] was over 100 µM. It also gave a TGI [10] of 33.5 µM, a TGI [11] of over 100 µM and a TGI [12] of over 100 µM. The TGI [13] was 50.5 µM, the TGI [14] was over 88.5 µM and the TGI [15] was 32.4 µM. For the same molecule, the TGI [16] was over 70.2 µM, the TGI [17] was 35.1 µM and the TGI [18] was over 100 µM. The TGI [19] was 66.2 µM, the TGI [20] was 49.8 µM and the TGI [21] was 71.5 µM. The TGI [22] was over 93.4 µM, the TGI [23] was 40 µM and the TGI [24] was over 78.3 µM. It also gave a TGI [25] of over 100 µM, a TGI [26] of 29.4 µM and a TGI [27] of 27.4 µM. For the same molecule, the TGI [28] was 27.8 µM, the TGI [29] was 5.33 µM and the TGI [30] was 34.7 µM. It also gave a TGI [31] of 39.5 µM, a TGI [32] of 48.7 µM and a TGI [33] of 3.44 µM. The TGI [34] was 12.8 µM, the TGI [35] was 61 µM and the TGI [36] was 47.5 µM. For the same molecule, the TGI [37] was 34 µM, the TGI [38] was 45.6 µM and the TGI [39] was over 100 µM. It also gave a TGI [40] of 74.1 µM, a TGI [41] of 18.7 µM and a TGI [42] of 24.5 µM. The TGI [43] was 38.7 µM, the TGI [44] was over 73.8 µM and the TGI [45] was over 100 µM. It also gave a TGI [46] of 40.8 µM, a TGI [47] of 43.2 µM and a TGI [48] of 65.3 µM. For the same molecule, the TGI [49] was over 84.2 µM, the TGI [50] was 40.9 µM and the TGI [51] was 59.7 µM. For the same molecule, the TGI [52] was over 69.2 µM, the TGI [53] was 38.2 µM and the TGI [54] was 31.7 µM. For the same molecule, the TGI [55] was over 74.3 µM, the TGI [56] was 31.8 µM and the TGI [57] was over 100 µM. For the same molecule, the TGI [58] was 71.7 µM, the TGI [59] was over 100 µM and the TGI [60] was 14.8 µM. It also gave a TGI [61] of 56.4 µM, a TGI [62] of 72.9 µM and a TGI [63] of over 81.6 µM. It also gave a TGI [64] of over 74.4 µM, a TGI [65] of 40.1 µM and a TGI [66] of 19.3 µM. The TGI [67] was 54.9 µM and the TGI [68] was 24.2 µM.

NC1CCCCC1N.Nc1c(N=Nc2ccc(-c3ccc(N=Nc4cc(S(=O)(=O)[O-])c5ccccc5c4N)cc3)cc2)cc(S(=O)(=O)[O-])c2ccccc12.[OH3+].[OH3+].[Pt+4] was tested, and the GI50 [2] was over 100 µM, the TGI [2] was over 100 µM and the GI50 [3] was over 76.5 µM. The TGI [3] was over 100 µM, the GI50 [6] was over 39.9 µM and the TGI [6] was over 56.9 µM. It also gave a GI50 [7] of 29.2 µM, a TGI [7] of over 79.3 µM and a GI50 [8] of 17.1 µM. It also gave a TGI [8] of 32.9 µM, a GI50 [9] of 21.1 µM and a TGI [9] of 43.5 µM. The GI50 [11] was 59.2 µM, the TGI [11] was over 100 µM and the GI50 [13] was 33.8 µM. The TGI [13] was 81.7 µM, the GI50 [14] was over 90.9 µM and the TGI [14] was over 100 µM. For the same molecule, the GI50 [15] was over 96.1 µM, the TGI [15] was over 100 µM and the GI50 [16] was over 43.3 µM. The TGI [16] was over 59.6 µM, the GI50 [17] was 21.2 µM and the TGI [17] was 50.9 µM. The GI50 [18] was 24.5 µM, the TGI [18] was 53.3 µM and the GI50 [19] was over 100 µM. The TGI [19] was over 100 µM, the GI50 [20] was 14.2 µM and the TGI [20] was 19.9 µM. It also gave a GI50 [22] of 20.1 µM, a TGI [22] of 38.8 µM and a GI50 [23] of 48.5 µM. The TGI [23] was over 100 µM, the GI50 [69] was 25 µM and the TGI [69] was 64.2 µM. For the same molecule, the GI50 [24] was over 60.5 µM, the TGI [24] was over 100 µM and the GI50 [25] was over 100 µM. It also gave a TGI [25] of over 100 µM, a GI50 [26] of over 52.2 µM and a TGI [26] of over 80.7 µM. It also gave a GI50 [30] of 15.4 µM, a TGI [30] of 22.2 µM and a GI50 [31] of 30.9 µM. For the same molecule, the TGI [31] was over 100 µM, the GI50 [35] was 21.1 µM and the TGI [35] was 54.6 µM. For the same molecule, the GI50 [36] was over 52.6 µM, the TGI [36] was over 100 µM and the GI50 [37] was 67.9 µM. For the same molecule, the TGI [37] was over 100 µM, the GI50 [38] was 40 µM and the TGI [38] was over 100 µM. It also gave a GI50 [39] of 19.6 µM, a TGI [39] of 37.9 µM and a GI50 [40] of 20.9 µM. It also gave a TGI [40] of 43 µM, a GI50 [41] of 42.8 µM and a TGI [41] of over 60.1 µM. It also gave a GI50 [42] of 35.3 µM, a TGI [42] of over 93 µM and a GI50 [43] of over 100 µM. For the same molecule, the TGI [43] was over 100 µM, the GI50 [44] was 26.8 µM and the TGI [44] was over 68.1 µM. For the same molecule, the GI50 [70] was 26.3 µM, the TGI [70] was 90.5 µM and the GI50 [71] was 22.6 µM. The TGI [71] was over 62 µM, the GI50 [46] was 25.2 µM and the TGI [46] was 66.3 µM. It also gave a GI50 [47] of 20.3 µM, a TGI [47] of 68.5 µM and a GI50 [49] of over 78.6 µM. It also gave a TGI [49] of over 100 µM, a GI50 [50] of over 100 µM and a TGI [50] of over 100 µM. For the same molecule, the GI50 [51] was over 100 µM, the TGI [51] was over 100 µM and the GI50 [52] was 45.6 µM. For the same molecule, the TGI [52] was over 100 µM, the GI50 [53] was 22 µM and the TGI [53] was 42.2 µM. For the same molecule, the GI50 [54] was 33 µM, the TGI [54] was over 83.9 µM and the GI50 [55] was over 100 µM. It also gave a TGI [55] of over 100 µM, a GI50 [56] of over 56.9 µM and a TGI [56] of over 100 µM. The GI50 [72] was 27.3 µM, the TGI [72] was over 58.2 µM and the GI50 [57] was over 100 µM. The TGI [57] was over 100 µM, the GI50 [58] was over 77.2 µM and the TGI [58] was over 100 µM. The GI50 [59] was over 76.5 µM, the TGI [59] was over 100 µM and the GI50 [61] was 25.2 µM. It also gave a TGI [61] of 49.4 µM, a GI50 [64] of over 100 µM and a TGI [64] of over 100 µM. It also gave a GI50 [65] of 18.1 µM, a TGI [65] of 34.7 µM and a GI50 [66] of 61.4 µM. For the same molecule, the TGI [66] was over 100 µM, the GI50 [67] was over 100 µM and the TGI [67] was over 100 µM. For the same molecule, the GI50 [68] was 20.4 µM and the TGI [68] was 42 µM.
